Experimental data published in patent US20080039515A1, “Arylpyrazoles And Methods Of Using Same For Control Of Insect Pests That Bore Into Trees” (The Texas A&M University System, priority 2004, published 2008).
Where two headings read alike, the source gives them in different places.

Tested on: Ips engravers beetles
Format: in vivo
Method: Study Sites: Two 20-year-old, recently thinned loblolly pine plantations were selected in Texas. Trees in one plantation were injected for use in a bolt study (Trial 1). Trees in ½ acre section of the second plantation were injected as part of a single-tree protection study (Trial 2). A staging area also was set up in the second plantation where bolts from the first plantation were exposed to bark beetles and wood borers.
Population Monitoring: A clear panel of acetate (10 cm wide by 25 cm long) was attached to the center of each bolt after deployment of bolts or 2 m high on standing trees after deployment of pheromone baits to monitor arrival of bark beetles. The top surface of each panel was coated entirely with Stikem Special® trapping compound (Michel and Pelton, Emeryville, Calif.). The traps were left in place for two weeks.
After 1 (May 24), 3 (July 19) and 5 (September) months post-injection, 5 trees of each treatment were felled and two 1.5 m long bolts were removed from the 3 m and 8 m heights of the bole. Because southern pine beetle (SPB) populations were extremely low in east Texas during the study year, Ips engravers were used as alternative bark beetles for this study. The bolts were transported to a 20-year-old loblolly plantation that was recently thinned and contained fresh slash material. Each bolt was placed about 1 m apart on discarded, dry pine bolts to maximize surface area available for colonization as well as to discourage predation by ground and litter-inhabiting organisms. To facilitate timely bark beetle colonization, packets of bark beetle pheromones (racemic ipsdienol +lanerione combination, ipsenol or cis-verbenol; Phero Tech, Inc., Delta, BC, Canada) were attached separately to three 1 m stakes evenly spaced in the study area. Racemic ipsdienol and cis-verbenol were used with the second series of bolts deployed in July. The packets were removed after 2 weeks when signs of attacks (boring dust) were observed on most test bolts, signaling that naturally-produced pheromones were present.
Treatment Evaluation: Trial 1. The first and second series of bolts were retrieved 2.5 and 3 weeks, respectively, after deployment, after observing many cerambycid attacks on most of the bolts. In the laboratory, two 10×50 cm strips (total=1000 cm^2) of bark were removed from each bolt. Several measurements were made relating to construction of nuptial chambers and egg galleries and development of brood: • 1. Number of unsuccessful attacks—penetration to phloem, but no egg galleries. • 2. Number of successful attacks—construction of nuptial chamber and at least one egg gallery extending from it. • 3. Number and lengths of egg galleries with brood galleries radiating from them. • 4. Number and lengths of egg galleries without brood galleries. • 5. Cerambycid activity, estimated by overlaying a 100 cm^2 grid over a portion of each bark strip and counting the number of squares overlapping area where cerambycids had fed.
Treatment efficacy was determined by comparing Ips beetle attacks and egg gallery length and cerambycid feeding on treated and untreated bolts. The data were transformed by log10(x+1) to satisfy criteria for normality and homoscedasticity (Zar 1984) and analyzed by GLM and the Fishers Protected LSD test using the Statview statistical program.

[1] = 1 month post-injection (May), bolt height 3 m
[2] = 1 month post-injection (May), bolt height 8 m
[3] = 3 months post-injection (July), bolt height 3 m
[4] = 3 months post-injection (July), bolt height 8 m
[5] = 3 months post-injection, bolt height 3 m
[6] = 3 months post-injection, bolt height 8 m
[7] = 5 months post-injection (Sept.), bolt height 3 m
[8] = 5 months post-injection (Sept.), bolt height 8 m

## O=[N+]([O-])NC1=NCCN1Cc1ccc(Cl)nc1 [Imid]
[1]
  Length of Egg Galleries Total: 442.2
  Length of Egg Galleries With Brood: 283.2 cm
  Length of Egg Galleries With Brood % of Total: 64.0%
  Length of Egg Galleries Without Brood: 159.0 cm
  Length of Egg Galleries Without Brood % of Total: 36.0%
  Mean # of Ips caught/trap: 5.6
  Number of Egg Galleries Total: 65.2
  Number of Egg Galleries With Brood % of Total: 46.0%
  Number of Egg Galleries With Brood No.: 30.0
  Number of Egg Galleries Without Brood % of Total: 54.0%
  Number of Egg Galleries Without Brood No.: 35.2
  Nuptial Chambers Total: 18.2
  Nuptial Chambers With Egg Galleries % of Total: 89.0%
  Nuptial Chambers With Egg Galleries No.: 16.2
  Nuptial Chambers Without Egg Galleries % of Total: 11.0%
  Nuptial Chambers Without Egg Galleries No.: 2.0
[2]
  Length of Egg Galleries Total: 315.8
  Length of Egg Galleries With Brood: 197.0 cm
  Length of Egg Galleries With Brood % of Total: 62.4%
  Length of Egg Galleries Without Brood: 118.8 cm
  Length of Egg Galleries Without Brood % of Total: 37.6%
  Mean # of Ips caught/trap: 3.8
  Number of Egg Galleries Total: 49.0
  Number of Egg Galleries With Brood % of Total: 39.6%
  Number of Egg Galleries With Brood No.: 19.4
  Number of Egg Galleries Without Brood % of Total: 60.4%
  Number of Egg Galleries Without Brood No.: 29.6
  Nuptial Chambers Total: 15.8
  Nuptial Chambers With Egg Galleries % of Total: 81.0%
  Nuptial Chambers With Egg Galleries No.: 12.8
  Nuptial Chambers Without Egg Galleries % of Total: 19.0%
  Nuptial Chambers Without Egg Galleries No.: 3.0
[3]
  Mean # of Ips caught/trap: 2.6
  Nuptial Chambers Total: 10.8
  Nuptial Chambers With Egg Galleries % of Total: 61.1%
  Nuptial Chambers With Egg Galleries No.: 6.6
  Nuptial Chambers Without Egg Galleries % of Total: 38.9%
  Nuptial Chambers Without Egg Galleries No.: 4.2
[4]
  Mean # of Ips caught/trap: 2.0
  Nuptial Chambers Total: 9.4
  Nuptial Chambers With Egg Galleries % of Total: 59.6%
  Nuptial Chambers With Egg Galleries No.: 5.6
  Nuptial Chambers Without Egg Galleries % of Total: 40.4%
  Nuptial Chambers Without Egg Galleries No.: 3.8
[5]
  Length of Egg Galleries Total: 187.4
  Length of Egg Galleries With Brood: 151.4 cm
  Length of Egg Galleries With Brood % of Total: 80.8%
  Length of Egg Galleries Without Brood: 36.0 cm
  Length of Egg Galleries Without Brood % of Total: 19.2%
  Number of Egg Galleries Total: 20.6
  Number of Egg Galleries With Brood % of Total: 68.9%
  Number of Egg Galleries With Brood No.: 14.2
  Number of Egg Galleries Without Brood % of Total: 31.1%
  Number of Egg Galleries Without Brood No.: 6.4
[6]
  Length of Egg Galleries Total: 130.0
  Length of Egg Galleries With Brood: 87.4 cm
  Length of Egg Galleries With Brood % of Total: 67.2%
  Length of Egg Galleries Without Brood: 42.6 cm
  Length of Egg Galleries Without Brood % of Total: 32.8%
  Number of Egg Galleries Total: 17.4
  Number of Egg Galleries With Brood % of Total: 52.9%
  Number of Egg Galleries With Brood No.: 9.2
  Number of Egg Galleries Without Brood % of Total: 47.1%
  Number of Egg Galleries Without Brood No.: 8.2
[7]
  Length of Egg Galleries Total: 163.4
  Length of Egg Galleries With Brood: 154.2 cm
  Length of Egg Galleries With Brood % of Total: 94.4%
  Length of Egg Galleries Without Brood: 9.2 cm
  Length of Egg Galleries Without Brood % of Total: 5.6%
  Mean # of Ips caught/trap: 1.6
  Number of Egg Galleries Total: 13.2
  Number of Egg Galleries With Brood % of Total: 89.4%
  Number of Egg Galleries With Brood No.: 11.8
  Number of Egg Galleries Without Brood % of Total: 10.6%
  Number of Egg Galleries Without Brood No.: 1.4
  Nuptial Chambers Total: 4.6
  Nuptial Chambers With Egg Galleries % of Total: 95.7%
  Nuptial Chambers With Egg Galleries No.: 4.4
  Nuptial Chambers Without Egg Galleries % of Total: 4.3%
  Nuptial Chambers Without Egg Galleries No.: 0.2
[8]
  Length of Egg Galleries Total: 164.4
  Length of Egg Galleries With Brood: 144.8 cm
  Length of Egg Galleries With Brood % of Total: 88.1%
  Length of Egg Galleries Without Brood: 19.6 cm
  Length of Egg Galleries Without Brood % of Total: 11.9%
  Mean # of Ips caught/trap: 1.5
  Number of Egg Galleries Total: 18.0
  Number of Egg Galleries With Brood % of Total: 81.1%
  Number of Egg Galleries With Brood No.: 14.6
  Number of Egg Galleries Without Brood % of Total: 18.9%
  Number of Egg Galleries Without Brood No.: 3.4
  Nuptial Chambers Total: 7.2
  Nuptial Chambers With Egg Galleries % of Total: 69.4%
  Nuptial Chambers With Egg Galleries No.: 5.0
  Nuptial Chambers Without Egg Galleries % of Total: 30.6%
  Nuptial Chambers Without Egg Galleries No.: 2.2
